Test results from patent US8609836B2, “4-aryl-2-anilino-pyrimidines” (Janssen Pharmaceutica NV, priority 2008, dated 2013).
pIC50: −log10 of the molar value.

Legend:
PLK4 (h) = PLK4 (h) (Homo sapiens, UniProt O00444); assay: PLK-4 human kinase inhibition, scintillation proximity assay (SPA); format: biochemical; conditions: read-out: PLK4 pIC50 (converted)
GSK3β (h) = GSK3β (h) (Homo sapiens, UniProt P49841); assay: GSK-3β human kinase inhibition, SPA; format: biochemical; conditions: read-out: GSK3b pIC50 (converted)
Sequence of GSK3β (h) (P49841 whole entry): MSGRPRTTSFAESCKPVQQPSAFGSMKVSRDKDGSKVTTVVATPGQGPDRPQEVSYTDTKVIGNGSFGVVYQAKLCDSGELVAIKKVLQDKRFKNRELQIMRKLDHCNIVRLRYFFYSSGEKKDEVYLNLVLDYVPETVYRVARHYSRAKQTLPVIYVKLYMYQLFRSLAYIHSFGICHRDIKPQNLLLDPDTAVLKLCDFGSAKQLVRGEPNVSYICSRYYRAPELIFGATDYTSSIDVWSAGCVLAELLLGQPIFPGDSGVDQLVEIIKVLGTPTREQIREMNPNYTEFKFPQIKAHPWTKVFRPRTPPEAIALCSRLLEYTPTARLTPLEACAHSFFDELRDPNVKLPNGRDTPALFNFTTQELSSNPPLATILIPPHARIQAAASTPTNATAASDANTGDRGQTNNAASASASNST
Summary of the method: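 Scintillation proximity assay: GSK3β (1 μg/ml) with 1 μM biotinylated peptide, 1 μM ATP plus [γ-33P]ATP in Tris pH 7.4, MgCl2, DTT. 60 min at room temperature, stopped with EDTA and streptavidin PVT beads; phosphorylation read by Leadseeker imaging.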

MDA-MB-231 = assay: Cellular proliferation assay (Alamar blue), MDA-MB-231; format: cell-based; conditions: Homo sapiens, 10% FCS, 72 hours with compound, Alamar blue 24 h, read-out: MDA/MB231 (cellular proliferation assay, Table 4) (converted)
Summary of the method: (§1)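 24 h seeding without compound, 10% FCS, 37° C/5% CO2; 72 h compound; Alamar blue (resazurin 9 μg/ml, ferro-/ferricyanide 90 μM) 4 h HCT-116, 6 h U87-MG, 24 h A2780/MDA-MB-231; fluorescence 544/590 nm vs control cells.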

PLK2 (h) = PLK2 (h) (Homo sapiens, UniProt Q9NYY3); assay: PLK2 human kinase inhibition, SPA; format: biochemical; conditions: read-out: PLK2 pIC50 (converted)
Sequence of PLK2 (h) (Q9NYY3 whole entry): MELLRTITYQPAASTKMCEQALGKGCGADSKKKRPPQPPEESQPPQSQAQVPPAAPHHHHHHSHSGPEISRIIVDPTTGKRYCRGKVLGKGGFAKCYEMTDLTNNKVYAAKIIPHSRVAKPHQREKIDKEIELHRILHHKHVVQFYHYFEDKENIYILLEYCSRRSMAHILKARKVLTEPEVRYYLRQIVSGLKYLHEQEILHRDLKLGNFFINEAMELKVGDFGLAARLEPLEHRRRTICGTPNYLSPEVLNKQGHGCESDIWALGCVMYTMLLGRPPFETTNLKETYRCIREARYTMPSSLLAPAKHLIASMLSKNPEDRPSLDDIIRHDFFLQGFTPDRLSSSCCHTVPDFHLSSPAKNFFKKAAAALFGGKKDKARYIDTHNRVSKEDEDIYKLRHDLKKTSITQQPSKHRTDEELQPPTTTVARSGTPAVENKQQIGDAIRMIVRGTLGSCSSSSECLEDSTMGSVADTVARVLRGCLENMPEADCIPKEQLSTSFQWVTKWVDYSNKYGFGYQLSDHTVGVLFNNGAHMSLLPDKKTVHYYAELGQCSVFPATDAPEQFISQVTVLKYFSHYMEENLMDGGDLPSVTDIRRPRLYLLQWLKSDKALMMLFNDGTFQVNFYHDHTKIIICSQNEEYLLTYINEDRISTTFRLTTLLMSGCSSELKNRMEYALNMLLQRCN
Summary of the method: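 SPA read on Leadseeker: PLK2 (30 μg/ml) with 2 μM biotinylated peptide, 0.1 μM ATP plus 2 nM [γ-33P]ATP in 50 mM Hepes pH 8.0, 2 mM MnCl2, 1 mM DTT. Reaction ran 20 min at room temperature, then EDTA stop and streptavidin PVT beads.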

U87-MG = assay: Cellular proliferation assay (Alamar blue), U87-MG; format: cell-based; conditions: Homo sapiens, U-87 MG; 10% FCS; 72 hours with compound; Alamar blue 6 h; read-out: U87-MG (cellular proliferation assay, Table 4) (converted)
Summary of the method: as §1

CDK4/CyclinD1 (h) = CDK4/CyclinD1 (h) (Homo sapiens, UniProt P11802); assay: CDK4/CyclinD1 human kinase inhibition, SPA with GST-pRb substrate; format: biochemical; conditions: read-out: CDK4 pIC50 (converted)
Sequence of CDK4/CyclinD1 (h) (P11802 whole entry): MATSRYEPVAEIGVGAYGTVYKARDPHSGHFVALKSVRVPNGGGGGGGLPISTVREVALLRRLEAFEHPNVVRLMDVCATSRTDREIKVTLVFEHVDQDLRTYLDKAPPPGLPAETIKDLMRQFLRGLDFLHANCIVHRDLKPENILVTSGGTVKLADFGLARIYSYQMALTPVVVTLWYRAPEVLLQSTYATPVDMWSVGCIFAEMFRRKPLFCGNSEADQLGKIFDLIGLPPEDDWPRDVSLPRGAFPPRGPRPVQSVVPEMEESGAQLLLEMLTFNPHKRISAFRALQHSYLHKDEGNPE
Sequence of CDK4/CyclinD1 (h) (P24385 whole entry partner): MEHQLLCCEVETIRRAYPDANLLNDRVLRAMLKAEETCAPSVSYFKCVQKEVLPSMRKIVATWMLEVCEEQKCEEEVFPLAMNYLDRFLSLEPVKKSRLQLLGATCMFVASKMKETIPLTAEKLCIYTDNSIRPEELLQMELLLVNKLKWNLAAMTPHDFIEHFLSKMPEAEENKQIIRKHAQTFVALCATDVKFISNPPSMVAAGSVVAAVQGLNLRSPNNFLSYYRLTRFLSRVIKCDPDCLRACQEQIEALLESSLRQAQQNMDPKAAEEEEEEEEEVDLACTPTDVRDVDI
Summary of the method: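 Human CDK4/CyclinD1 (2.5 μg/ml) was incubated with 40 μg/ml GST-pRb and 2 nM [γ-33P]ATP in 50 mM Hepes pH 7.5, 8 mM NaF, 20 mM MgCl2, 1 mM DTT for 60 min at room temperature. EDTA stop with glutathione SPA beads; phosphorylation read by scintillation counting.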

PLK1 T210D (h) = PLK1 T210D (h) (Homo sapiens, UniProt P53350, T210D); assay: PLK1 human kinase inhibition, SPA; format: biochemical; conditions: read-out: PLK1 pIC50 (converted)
Sequence of PLK1 T210D (h) (P53350 whole entry T210D): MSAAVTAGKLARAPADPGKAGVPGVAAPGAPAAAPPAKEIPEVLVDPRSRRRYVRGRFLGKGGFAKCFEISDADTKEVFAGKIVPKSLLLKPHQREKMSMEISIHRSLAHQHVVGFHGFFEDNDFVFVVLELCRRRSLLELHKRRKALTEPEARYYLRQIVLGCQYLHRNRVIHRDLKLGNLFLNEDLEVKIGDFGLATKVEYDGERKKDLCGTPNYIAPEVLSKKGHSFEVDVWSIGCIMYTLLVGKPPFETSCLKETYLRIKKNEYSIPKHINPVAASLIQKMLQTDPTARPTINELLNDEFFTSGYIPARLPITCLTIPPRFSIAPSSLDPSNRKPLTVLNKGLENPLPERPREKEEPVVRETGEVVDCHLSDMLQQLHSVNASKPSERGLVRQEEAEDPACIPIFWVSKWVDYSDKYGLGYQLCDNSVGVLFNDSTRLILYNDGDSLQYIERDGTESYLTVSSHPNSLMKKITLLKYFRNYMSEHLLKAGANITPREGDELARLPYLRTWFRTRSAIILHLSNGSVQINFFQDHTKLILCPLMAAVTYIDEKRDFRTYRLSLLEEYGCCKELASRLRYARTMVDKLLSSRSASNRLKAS
Summary of the method: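 Radiometric SPA with PLK1 T210D (0.125 ng/ml) in 50 mM Hepes pH 8.0, 2 mM MnCl2, 1 mM DTT, 2 μM biotinylated peptide, 0.1 μM ATP plus 2 nM [γ-33P]ATP. 40 min at room temperature, EDTA stop. Phosphorylated substrate captured on streptavidin PVT beads, scintillation imaged.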

H1299 = assay: Cellular proliferation assay (Alamar blue), H1299; format: cell-based; conditions: Homo sapiens, NCI-H1299; 10% FCS; 72 hours with compound; Alamar blue 4 h
Summary of the method: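 This proliferation assay on NCI-H1299 cells used an initial 24-hour compound-free incubation after seeding, followed by 72 hours of compound treatment with 10% FCS serum at 37° C. and 5% (v/v) CO2. Viable cells were quantified by a 4 h Alamar blue incubation and fluorescent plate reading at 544 nm/590 nm, and effects were expressed relative to control cells.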

A2780 = assay: Cellular proliferation assay (Alamar blue), A2780; format: cell-based; conditions: Homo sapiens, 10% FCS, 72 hours with compound, Alamar blue 24 h, read-out: A2780 (cellular proliferation assay, Table 4) (converted)
Summary of the method: as §1

HCT-116 = assay: Cellular proliferation assay (Alamar blue), HCT-116; format: cell-based; conditions: Homo sapiens, 10% FCS, 72 hours with compound, Alamar blue 4 h
Summary of the method: as §1

Sequence of PLK4 (h) (O00444 whole entry): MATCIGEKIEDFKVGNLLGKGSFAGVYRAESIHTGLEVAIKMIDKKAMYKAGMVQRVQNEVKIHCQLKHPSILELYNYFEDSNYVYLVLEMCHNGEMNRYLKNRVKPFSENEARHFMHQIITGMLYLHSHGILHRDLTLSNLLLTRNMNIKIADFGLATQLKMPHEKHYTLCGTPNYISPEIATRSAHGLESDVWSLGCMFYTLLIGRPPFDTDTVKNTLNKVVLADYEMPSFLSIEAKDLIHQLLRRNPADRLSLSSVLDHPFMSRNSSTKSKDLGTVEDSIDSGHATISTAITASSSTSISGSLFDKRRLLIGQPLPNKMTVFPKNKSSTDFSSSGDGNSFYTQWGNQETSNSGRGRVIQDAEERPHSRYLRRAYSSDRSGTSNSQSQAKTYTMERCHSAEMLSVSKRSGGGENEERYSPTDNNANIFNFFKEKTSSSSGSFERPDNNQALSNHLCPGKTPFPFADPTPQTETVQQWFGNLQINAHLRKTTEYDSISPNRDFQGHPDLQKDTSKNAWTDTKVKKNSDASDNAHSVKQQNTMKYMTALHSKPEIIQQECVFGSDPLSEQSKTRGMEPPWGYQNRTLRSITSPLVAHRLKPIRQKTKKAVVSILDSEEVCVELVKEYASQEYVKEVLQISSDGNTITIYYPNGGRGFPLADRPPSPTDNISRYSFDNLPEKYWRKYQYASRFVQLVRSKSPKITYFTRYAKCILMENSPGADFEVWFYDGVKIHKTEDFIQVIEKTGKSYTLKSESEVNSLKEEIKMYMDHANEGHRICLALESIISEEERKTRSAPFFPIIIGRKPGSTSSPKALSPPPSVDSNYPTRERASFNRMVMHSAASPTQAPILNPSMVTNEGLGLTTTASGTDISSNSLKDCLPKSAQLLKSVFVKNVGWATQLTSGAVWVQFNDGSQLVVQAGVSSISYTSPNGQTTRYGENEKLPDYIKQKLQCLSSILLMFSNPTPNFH

Compound	IC50 (PLK4 (h))	IC50 (GSK3β (h))	IC50 (MDA-MB-231)	IC50 (PLK2 (h))	IC50 (U87-MG)	IC50 (CDK4/CyclinD1 (h))	IC50 (PLK1 T210D (h))	pIC50 (H1299)	IC50 (A2780)	pIC50 (HCT-116)
COc1cc2cc(c1)Nc1nccc(n1)-c1ccc(cc1)CN(C)CCNC(=O)[C@H](CO)NC2 [Compound 109]	0.741 µM	4.79 µM	> 10 µM	> 10 µM	5.62 µM	> 10 µM	> 10 µM	< 5.00	> 10 µM	5.57
CN1CCNC(=O)[C@H](CO)NCc2cccc(c2)Nc2nccc(n2)-c2ccc(cc2)C1 [Compound 114]	1.2 µM	2.82 µM	> 10 µM	~3.02 µM	> 10 µM	> 10 µM	> 10 µM	< 5.00	> 10 µM	< 5.00
COc1ccc2cc1CN(C)CCCNC(=O)[C@H](CO)NCc1cccc(c1)Nc1nccc-2n1 [Compound 118]	3.24 µM	> 10 µM	> 10 µM	> 3.02 µM	> 10 µM	> 10 µM	> 10 µM	< 5.00	> 10 µM	< 5.00
COc1ccc2cc1CN(C)CCNC(=O)[C@H](CO)NCc1cc(Br)cc(c1)Nc1nccc-2n1 [Compound 119]	3.89 µM	6.03 µM	> 10 µM	> 10 µM	8.71 µM	> 10 µM	> 10 µM	< 5.00	> 10 µM	5.64
O=C1NCc2cccc(c2)-c2ccnc(n2)Nc2cccc(c2)CN2CCC1CC2 [Compound 124]	8.71 µM	0.457 µM	> 10 µM	> 10 µM	6.03 µM	1.7 µM	> 10 µM	< 5.00	> 10 µM	5.54
COc1cc2cc(c1)Nc1nccc(n1)-c1ccc(OC)c(c1)CN(C)CCNC(=O)CN1CCN(CC1)C2 [Compound 127]	0.813 µM	5.01 µM	> 10 µM	> 10 µM	> 10 µM	> 10 µM	> 10 µM	< 5.00	> 10 µM	5.19

The next lines start with the values.

IC50 (PLK4 (h))	IC50 (GSK3β (h))	IC50 (MDA-MB-231)	IC50 (PLK2 (h))	IC50 (U87-MG)	IC50 (CDK4/CyclinD1 (h))	IC50 (PLK1 T210D (h))	pIC50 (H1299)	IC50 (A2780)	pIC50 (HCT-116)	Compound
0.447 µM	> 10 µM	> 10 µM	> 3.02 µM	> 10 µM	> 10 µM	> 10 µM	< 5.00	> 10 µM	< 5.00	COc1ccc2cc1CN(C)CCNC(=O)[C@H](CO)NCc1cc(cc(N3CCOCC3)c1)Nc1nccc-2n1 [Compound 105]
0.589 µM	6.31 µM	> 10 µM	> 10 µM	8.91 µM	> 10 µM	> 10 µM	< 5.00	> 10 µM	5.36	COc1cc2cc(c1)Nc1nccc(n1)-c1ccc(OC)c(c1)CN(C)CCNC(=O)[C@H](CO)NC2 [Compound 107]
1.26 µM	4.37 µM	> 10 µM	> 10 µM	> 10 µM	> 10 µM	> 10 µM	< 5.00	> 10 µM	5.28	CC(C)Nc1cc2cc(c1)Nc1nccc(n1)-c1ccc(cc1)CN(C)CCCNC(=O)CN1CCN(CC1)C2 [Compound 131]
1.41 µM	2 µM	> 10 µM	> 3.02 µM	8.71 µM	> 10 µM	> 10 µM	< 5.00	> 10 µM	5.23	COc1cc2cc(c1)Nc1nccc(n1)-c1ccc(cc1)CN(C)CCNC(=O)CN1CCN(CC1)C2 [Compound 132]
1.62 µM	1.32 µM	> 10 µM	2.88 µM	> 10 µM	> 10 µM	> 10 µM	< 5.00	> 10 µM	5.28	CN1CCNC(=O)CN2CCN(CC2)Cc2cccc(c2)Nc2nccc(n2)-c2ccc(cc2)C1 [Compound 134]
